Measurements as given in US10464922B2, “Metalloenzyme inhibitor compounds” (NQP 1598 LTD., priority 2015, dated 2019).
Values after ≈ are worked out from the molar mass of the structure shown.

Assays:
[1] = test system: C. albicans (ATCC 90028); assay: Minimum inhibitory concentration, in vitro broth microdilution assay (CLSI M27-A2); type: cell-based, Candida albicans; conditions: ATCC 90028, about 50% growth reduction, 2 days at 36° C., range tested 8-0.0078 μg/mL, values given as ranges; for MIC: Candida albicans, ATCC90028, 48 h, read-out: Candida albicans MIC
Experimental: The antifungal potency of the test compounds was measured using the in vitro broth microdilution assay under assay conditions described by the Clinical and Laboratory Standards Institute (CLSI M27-A2). The test compounds were dissolved in 100% DMSO, suspended completely by sonication or vortexing, diluted by 2-fold serial titrations in the same vehicle, for a total of 11 test concentrations. A 4 μL aliquot of each dilution was added to 196 μL of RPMI-1640+MOPS medium seeded with the C. albicans (ATCC 90028) suspension in wells of a 96 well plate (fungal cell count: 1×10^3 to 1×10^4 colony forming units per mL). The final volume was 200 μL in each well and the final DMSO concentration was 2 percent. The inoculated plates were incubated for 2 days at 36° C. Following incubation, the test plates were visually examined and wells were scored for growth to define the minimum inhibitory concentration. […] Each test substance was evaluated in duplicate. Vehicle-control and an active reference agent (e.g., posaconazole) were used as blank and positive controls, respectively.

[2] = test system: A. fumigatus; assay: A. fumigatus MIC at 100% growth inhibition (CLSI M38-A2); type: cell-based, Aspergillus fumigatus; conditions: 100% growth inhibition, range tested 8-0.0078 μg/mL, values given as ranges; for MIC: Aspergillus fumigatus, read-out: Aspergillus fumigatus MIC
Experimental: A. fumigatus MICs were determined at 100% growth inhibition following CLSI guidelines at a concentration range of 8-0.0078 μg/mL (CLSI M38-A2).

MIC [1] [µg/mL] | MIC [2] [µg/mL] | Candida albicans MIC [1] [µg/mL] | Aspergillus fumigatus MIC [2] [µg/mL] | SMILES
0.0078 to 0.01 (≈ 0.0116 to 0.0149 µM) | 0.25 to 1 (≈ 0.372 to 1.49 µM) | – | – | O=c1[nH]ncn1-c1ccc(N2CCN(c3ccc(-c4ccc(C(F)(F)[C@](O)(Cn5cnnn5)c5ccc(F)cc5F)nc4)cc3)CC2)cc1 [Example 60, (R)-4-(4-(4-(4-(6-(2-(2,4-difluorophenyl)-1,1-difluoro-2-hydroxy-3-(1H-tetrazol-1-yl)propyl)pyridin-3-yl)phenyl)piperazin-1-yl)phenyl)-2,4-dihydro-3H-1,2,4-triazol-3-one]
– | – | 0.10 to 1.0 | >8 | OC(CC(F)(F)F)c1ccc(N2CCN(c3ccc(-c4ccc(C(F)(F)[C@](O)(Cn5cnnn5)c5ccc(F)cc5)nc4)cc3)CC2)cn1 (single isomer, unassigned; (-)) [121(−)]
– | – | >8 | >8 | OC(c1cn(-c2ccc(N3CCN(c4ccc(-c5ccc(C(F)(F)C(O)(Cn6cnnn6)c6ccccc6F)nc5)cc4)CC3)cc2)nn1)C(F)(F)F (single isomer, unassigned; (-)) [108(−)]
0.01 to 0.1 (≈ 0.0148 to 0.148 µM) | 0.062 to 0.25 (≈ 0.0916 to 0.369 µM) | – | – | CC(C)CC(O)c1ccc(N2CCN(c3ccc(-c4ccc(C(F)(F)[C@](O)(Cn5cnnn5)c5ccc(F)cc5F)nc4)cc3)CC2)cn1 (stereo partly drawn) [Example 49, 1-(5-(4-(4-(6-((R)-2-(2,4-difluorophenyl)-1,1-difluoro-2-hydroxy-3-(1H-tetrazol-1-yl)propyl)pyridin-3-yl)phenyl)piperazin-1-yl)pyridin-2-yl)-3-methylbutan-1-ol]
– | – | ≤0.0078 to 0.010 | 0.062 to 0.25 | OC(CC(F)(F)F)c1ccc(N2CCN(c3ccc(-c4ccc(C(F)(F)[C@](O)(Cn5cnnn5)c5ccc(F)cc5F)nc4)cc3)CC2)cn1 (single isomer, unassigned) [Example 13-Fr-I]
– | – | ≤0.0078 to 0.010 | 0.25 to 1.0 | CC[C@@H]([C@H](C)O)n1ncn(-c2ccc(N3CCN(c4ccc(-c5ccc(C(F)(F)[C@](O)(Cn6cnnn6)c6ccccc6F)nc5)cc4)CC3)cn2)c1=O [102(+), 4-(5-(4-(4-(6-((R)-1,1-difluoro-2-(2-fluorophenyl)-2-hydroxy-3-(1H-tetrazol-1-yl)propyl)pyridin-3-yl)phenyl)piperazin-1-yl)pyridin-2-yl)-2-((2S,3S)-2-hydroxypentan-3-yl)-2,4-dihydro-3H-1,2,4-triazol-3-one]
0.01 to 0.1 (≈ 0.0141 to 0.141 µM) | 0.25 to 1 (≈ 0.351 to 1.41 µM) | – | – | O[C@@](Cn1cnnn1)(c1ccc(F)cc1F)C(F)(F)c1ccc(-c2ccc(N3CCN(c4ccc5nc(CC(F)(F)F)[nH]c5c4)CC3)cc2)cn1 [Example 77, (R)-2-(2,4-difluorophenyl)-1,1-difluoro-3-(1H-tetrazol-1-yl)-1-(5-(4-(4-(2-(2,2,2-trifluoroethyl)-1H-benzo [d]imidazol-6-yl)piperazin-1-yl)phenyl)pyridin-2-yl) propan-2-ol]
0.0078 to 0.01 (≈ 0.0105 to 0.0134 µM) | 0.062 to 0.25 (≈ 0.0832 to 0.336 µM) | – | – | CC(O)C(C)n1ncn(-c2ccc(N3CCN(c4ccc(-c5ccc(C(F)(F)[C@](O)(Cn6cnnn6)c6ccc(F)cc6F)nc5)cc4)CC3)cc2)c1=O (stereo partly drawn) [Example 75, 4-(4-(4-(4-(6-((R)-2-(2,4-difluorophenyl)-1,1-difluoro-2-hydroxy-3-(1H-tetrazol-1-yl)propyl)pyridin-3-yl)phenyl)piperazin-1-yl)phenyl)-2-(3-hydroxybutan-2-yl)-2,4-dihydro-3H-1,2,4-triazol-3-one]
0.0078 to 0.01 (≈ 0.0118 to 0.0152 µM) | > 8 | – | – | OC(c1ccc(N2CCN(c3ccc(-c4ccc(C(F)(F)[C@](O)(Cn5cnnn5)c5ccc(F)cc5F)nc4)cc3)CC2)cc1)C1CC1 (stereo partly drawn) [Example 42, (2R)-1-(5-(4-(4-(4-(cyclopropyl (hydroxy)methyl)phenyl)piperazin-1-yl)phenyl)pyridin-2-yl)-2-(2,4-difluorophenyl)-1,1-difluoro-3-(1H-tetrazol-1-yl) propan-2-ol]

Continued, molecule first:

SMILES | MIC [1] [µg/mL] | MIC [2] [µg/mL] | Candida albicans MIC [1] [µg/mL] | Aspergillus fumigatus MIC [2] [µg/mL]
N#Cc1ccc(N2CCN(c3ccc(-c4ccc(C(F)(F)[C@](O)(Cn5cnnn5)c5ccc(F)cc5F)nc4)cc3)CC2)cn1 [Example 7, (R)-5-(4-(4-(6-(2-(2,4-difluorophenyl)-1,1-difluoro-2-hydroxy-3-(1H-tetrazol-1-yl)propyl)pyridin-3-yl)phenyl)piperazin-1-yl) picolinonitrile] | 0.0078 to 0.01 (≈ 0.0127 to 0.0162 µM) | 0.25 to 1 (≈ 0.406 to 1.62 µM) | – | –
CC(C)(C)C(O)c1ccc(N2CCN(c3ccc(-c4ccc(C(F)(F)[C@](O)(Cn5cnnn5)c5ccc(F)cc5F)nc4)cc3)CC2)cn1 (stereo partly drawn) [Example 50, 1-(5-(4-(4-(6-((R)-2-(2,4-difluorophenyl)-1,1-difluoro-2-hydroxy-3-(1H-tetrazol-1-yl)propyl)pyridin-3-yl)phenyl)piperazin-1-yl)pyridin-2-yl)-2,2-dimethylpropan-1-ol] | 0.01 to 0.1 (≈ 0.0148 to 0.148 µM) | 0.25 to 1 (≈ 0.369 to 1.48 µM) | – | –
Cn1c(N2CCN(c3ccc(-c4ccc(C(F)(F)[C@](O)(Cn5cnnn5)c5ccc(F)cc5F)nc4)cc3)CC2)nc2cc(C#N)ccc21 [Example 80, (R)-2-(4-(4-(6-(2-(2,4-difluorophenyl)-1,1-difluoro-2-hydroxy-3-(1H-tetrazol-1-yl)propyl)pyridin-3-yl)phenyl)piperazin-1-yl)-1-methyl-1H-benzo [d] imidazole-5-carbonitrile] | 0.0078 to 0.01 (≈ 0.0117 to 0.015 µM) | > 8 | – | –
OC(CC(F)(F)F)c1ccc(N2CCN(c3ccc(-c4ccc(C(F)(F)[C@](O)(Cn5cnnn5)c5cccc(F)c5)nc4)cc3)CC2)cn1 (single isomer, unassigned; (-)) [119(−)] | 0.1 to 1 (≈ 0.146 to 1.46 µM) | > 8 | – | –
CC[C@@H]([C@H](C)O)n1ncn(-c2ccc(N3CCN(c4ccc(-c5ccc(C(F)(F)[C@](O)(Cn6cnnn6)c6ccccc6F)nc5)cc4)CC3)cn2)c1=O [102(−), 4-(5-(4-(4-(6-((R)-1,1-difluoro-2-(2-fluorophenyl)-2-hydroxy-3-(1H-tetrazol-1-yl)propyl)pyridin-3-yl)phenyl)piperazin-1-yl)pyridin-2-yl)-2-((2S,3S)-2-hydroxypentan-3-yl)-2,4-dihydro-3H-1,2,4-triazol-3-one] | – | – | 0.10 to 1.0 | >8
N#Cc1ccc(C(=O)N2CCN(c3ccc(-c4ccc(C(F)(F)[C@](O)(Cn5cnnn5)c5ccc(F)cc5F)nc4)cc3)CC2)cc1 [Example 23, (R)-4-(4-(4-(6-(2-(2,4-difluorophenyl)-1,1-difluoro-2-hydroxy-3-(1H-tetrazol-1-yl)propyl)pyridin-3-yl)phenyl)piperazine-1-carbonyl) benzonitrile] | 0.0078 to 0.01 (≈ 0.0121 to 0.0156 µM) | > 8 | – | –
CC(C)(C)Cc1nc2ccc(N3CCN(c4ccc(-c5ccc(C(F)(F)[C@](O)(Cn6cnnn6)c6ccc(F)cc6F)nc5)cc4)CC3)cc2[nH]1 [Example 90, (R)-2-(2,4-difluorophenyl)-1,1-difluoro-1-(5-(4-(4-(2-neopentyl-1H-benzo [d]imidazol-6-yl)piperazin-1-yl)phenyl)pyridin-2-yl)-3-(1H-tetrazol-1-yl) propan-2-ol] | 0.0078 to 0.01 (≈ 0.0111 to 0.0143 µM) | > 8 | – | –
CC[C@@H]([C@H](C)O)n1cc(-c2ccc(N3CCN(c4ccc(-c5ccc(C(F)(F)[C@](O)(Cn6cnnn6)c6ccc(F)cc6F)nc5)cc4)CC3)cc2)nn1 [Example 95, (2S,3S)-3-(4-(4-(4-(4-(6-((R)-2-(2,4-difluorophenyl)-1,1-difluoro-2-hydroxy-3-(1H-tetrazol-1-yl)propyl)pyridin-3-yl)phenyl)piperazin-1-yl)phenyl)-1H-1,2,3-triazol-1-yl) pentan-2-ol] | 0.0078 to 0.01 (≈ 0.0105 to 0.0135 µM) | 0.25 to 1 (≈ 0.337 to 1.35 µM) | – | –
OC(c1ccc(N2CCN(c3ccc(-c4ccc(C(F)(F)[C@](O)(Cn5cnnn5)c5ccc(F)cc5F)nc4)cc3)CC2)s1)C(F)(F)F (stereo partly drawn) [Example 62, (2R)-2-(2,4-difluorophenyl)-1,1-difluoro-3-(1H-tetrazol-1-yl)-1-(5-(4-(4-(5-(2,2,2-trifluoro-1-hydroxyethyl)thiophen-2-yl)piperazin-1-yl)phenyl)pyridin-2-yl) propan-2-ol] | 0.0078 to 0.01 (≈ 0.0112 to 0.0144 µM) | 0.25 to 1 (≈ 0.36 to 1.44 µM) | – | –
CCC(O)c1ccc(N2CCN(c3ccc(-c4ccc(C(F)(F)[C@](O)(Cn5cnnn5)c5ccc(F)cc5F)nc4)cc3)CC2)cn1 (stereo partly drawn) [Example 48, 1-(5-(4-(4-(6-((R)-2-(2,4-difluorophenyl)-1,1-difluoro-2-hydroxy-3-(1H-tetrazol-1-yl)propyl)pyridin-3-yl)phenyl)piperazin-1-yl)pyridin-2-yl)propan-1-ol] | 0.01 to 0.1 (≈ 0.0154 to 0.154 µM) | 0.25 to 1 (≈ 0.385 to 1.54 µM) | – | –
OC(c1cn(-c2ccc(N3CCN(c4ccc(-c5ccc(C(F)(F)C(O)(Cn6cnnn6)c6ccccc6F)nc5)cc4)CC3)cn2)nn1)C(F)(F)F (single isomer, unassigned; (+)) [110(+), (+)-1,1-difluoro-2-(2-fluorophenyl)-3-(1H-tetrazol-1-yl)-1-(5-(4-(4-(6-(4-(2,2,2-trifluoro-1-hydroxyethyl)-1H-1,2,3-triazol-1-yl)pyridin-3-yl)piperazin-1-yl)phenyl)pyridin-2-yl) propan-2-ol] | – | – | ≤0.0078 to 0.010 | 0.25 to 1.0
